# Source: patent US6506772B1, “Substituted [1,2,4]triazolo[1,5a]pyridine derivatives with activity as adenosine receptor ligands” (Hoffmann-La Roche Inc., priority 2000, dated 2003)
# Like-named read-outs stand apart in the source and are kept apart here.
# Legend:
# [1] = target: T1, HA1 adenosine receptor (Homo sapiens, UniProt P30542); experiment: Human adenosine A1 receptor affinity (Ki hA1); type: binding
# T1 sequence (P30542 1-326): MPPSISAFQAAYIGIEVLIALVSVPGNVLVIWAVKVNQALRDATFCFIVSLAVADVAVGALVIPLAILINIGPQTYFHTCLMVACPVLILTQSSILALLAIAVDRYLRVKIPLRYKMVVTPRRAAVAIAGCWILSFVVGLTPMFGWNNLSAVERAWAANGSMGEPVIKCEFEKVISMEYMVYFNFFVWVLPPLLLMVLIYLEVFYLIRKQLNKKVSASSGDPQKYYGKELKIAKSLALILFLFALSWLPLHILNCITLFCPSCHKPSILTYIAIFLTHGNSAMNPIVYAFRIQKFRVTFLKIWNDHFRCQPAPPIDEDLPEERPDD
# [2] = target: T2, human adenosine A2A receptor (Homo sapiens, UniProt P29274); experiment: Human adenosine A2A receptor [3H]-SCH-58261 binding assay
# T2 construct: expressed in transfected cells; host or cells: CHO cells, Semliki Forest virus expression system; membrane preparation
# T2 sequence (P29274 whole entry): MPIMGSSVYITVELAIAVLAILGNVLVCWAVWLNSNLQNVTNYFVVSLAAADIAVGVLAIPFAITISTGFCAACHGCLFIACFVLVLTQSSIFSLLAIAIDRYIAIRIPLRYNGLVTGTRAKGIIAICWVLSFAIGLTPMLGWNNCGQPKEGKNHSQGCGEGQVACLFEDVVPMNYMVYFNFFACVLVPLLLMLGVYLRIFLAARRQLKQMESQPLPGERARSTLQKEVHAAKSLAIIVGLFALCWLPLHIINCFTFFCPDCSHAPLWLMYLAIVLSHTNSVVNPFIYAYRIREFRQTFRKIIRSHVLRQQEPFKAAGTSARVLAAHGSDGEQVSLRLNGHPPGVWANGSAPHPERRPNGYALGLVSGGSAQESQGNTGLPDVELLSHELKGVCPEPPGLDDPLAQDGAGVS
# [3] = recombinant human A2A in CHO cell membranes, [3H]-SCH-58261, Cheng-Prussoff, read-out: Ki hA2A
# [4] = affinity to human adenosine A1 receptor
# [5] = affinity to human adenosine A2A receptor, read-out: Ki HA2A
# [6] = calculated ratio of the affinity to the HA1 receptor to the HA2a receptor
SMILES,Ki [1],selectivity (A1/A2a) ([2]; ratio KiHA1 divided by KiHA2A),"Ki [2, 3]","Ki [1, 4]","Ki [2, 5]","selectivity (A1/A2a) [2, 6]"
"CC1CCCCN1C(=O)c1cc(N)n2nc(-c3ccccn3)nc2c1 (stereo not drawn) [Example 418, (5-amino-2-pyridin-2-yl-[1,2,4]triazolo[1,5-a]pyridin-7-yl)-(2-methyl-piperidin-1-yl)-methanone]",1020 nM,24.2,42.4 nM,,,
"COC[C@@H]1CC[C@@H](COC)N1C(=O)c1cc(N)n2nc(-c3ccc(Br)o3)nc2c1 [Example 387, [5 -Amino-2-(5-bromo-furan-2-yl)-[1,2,4]triazolo[1,5-a]pyridin-7-yl]-(S,S-2,5-bis-methoxymethyl-pyrrolidin-1-yl)-methanone]",2540 nM,21.5,118 nM,,,
"CCCN(C)C(=O)c1cc(N)n2nc(-c3nccs3)nc2c1 [Example 284, 5-Amino-2-thiazol-2-yl-[1,2,4]triazolo[1,5-a]pyridine-7-carboxylic acid methyl-propyl-amide]",,,,3890 nM,132 nM,29.5
"CCN(Cc1ccccc1F)C(=O)c1cc(N)n2nc(-c3ccc[nH]3)nc2c1 [Example 85, 5-Amino-2-(1H-pyrrol-2-yl)-[1,2,4]triazolo[1,5-a]pyridine-7-carboxylic acid ethyl-(2-fluoro-benzyl)-amide]",,,,1400 nM,169 nM,8.3
"COC[C@@H]1CCCN1C(=O)c1cc(N)n2nc(-c3ccccn3)nc2c1 [Example 426, (5-Amino-2-pyridin-2-yl-[1,2,4]triazolo[1,5-a]pyridin-7-yl)-(S-2-methoxymethyl-pyrrolidin-1-yl)-methanone]",2050 nM,17.2,119 nM,,,
"Nc1cc(C(=O)N2CCC2)cc2nc(-c3ccc(Cl)o3)nn12 [Example 249, [5-Amino-2-(5-chloro-furan-2-yl)-[1,2,4]triazolo[1,5-a]pyridin-7-yl]-azetidin-1-yl-methanone]",,,,6210 nM,2090 nM,3.0
"Nc1cc(C(=O)N2CCOCC2)cc2nc(-c3ccco3)nn12 [Example 108, (5-Amino-2-furan-2-yl-[1,2,4]triazolo[1,5-a]pyridin-7-yl)-morpholin-4-yl-methanone]",,,,6200 nM,299 nM,20.7
"Nc1cc(C(=O)N2CC=CC2)cc2nc(-c3nccs3)nn12 [Example 281, (5-Amino-2-thiazol-2-yl-[1,2,4]triazolo[1,5-a]pyridin-7-yl)-(2,5-dihydro-pyrrol-1-yl)-methanone]",,,,4340 nM,83.7 nM,51.9
"CC(C)N(C)C(=O)c1cc(N)n2nc(-c3nccs3)nc2c1 [Example 285, 5-Amino-2-thiazol-2-yl-[1,2,4]triazolo[1,5-a]pyridine-7-carboxylic acid isopropyl-methyl-amide]",,,,2720 nM,83.5 nM,32.6
"CC1CN(C(=O)c2cc(N)n3nc(-c4ccc(Cl)o4)nc3c2)CC(C)O1 (stereo not drawn) [Example 257, [5-Amino-2-(5-chloro-furan-2-yl)-[1,2,4]triazolo[1,5-a]pyridin-7-yl]-(2,6-dimethyl-morpholin-4-yl)-methanone]",,,,819 nM,28.9 nM,28.3
"COc1cc(CNC(=O)c2cc(N)n3nc(-c4ccco4)nc3c2)cc(OC)c1OC [Example 111, 5-Amino-2-furan-2-yl-[1,2,4]triazolo[1,5-a]pyridine-7-carboxylic acid 3,4,5-trimethoxy-benzylamide]",,,,1220 nM,45.2 nM,27.1
"CCN(Cc1ccncc1)C(=O)c1cc(N)n2nc(-c3ccccn3)nc2c1 [Example 431, 5-Amino-2-pyridin-2-yl-[1,2,4]triazolo[1,5-a]pyridine-7-carboxylic acid ethyl-pyridin-4-ylmethyl-amide]",1030 nM,31.2,33.1 nM,,,
"CCCN(CC1CC1)C(=O)c1cc(N)n2nc(-c3ccccn3)nc2c1 [Example 424, 5-Amino-2-pyridin-2-yl-[1,2,4]triazolo[1,5-a]pyridine-7-carboxylic acid cyclopropylmethyl-propyl-amide]",878 nM,17.7,49.6 nM,,,

# Continued, values first:
Ki [1],selectivity (A1/A2a) ([2]; ratio KiHA1 divided by KiHA2A),"Ki [2, 3]","Ki [1, 4]","Ki [2, 5]","selectivity (A1/A2a) [2, 6]",SMILES
,,,139 nM,126 nM,1.1,"Nc1cc(C(=O)NCc2ccccc2Br)cc2nc(-c3ccccc3O)nn12 [Example 160, 5-Amino-2-(2-hydroxy-phenyl)-[1,2,4]triazolo[1,5-a]pyridine-7-carboxylic acid 2-bromo-benzylamide]"
,,,255 nM,24.4 nM,10.5,"Nc1cc(C(=O)NC2CCc3ccccc32)cc2nc(-c3nccs3)nn12 (stereo not drawn) [Example 125, 5-Amino-2-thiazol-2-yl-[1,2,4]triazolo[1,5-a]pyridine-7-carboxylic acid indan-1-ylamide]"
,,,533 nM,187 nM,2.8,"COc1ccc(CNC(=O)c2cc(N)n3nc(-c4nccs4)nc3c2)cc1 [Example 207, 5-Amino-2-thiazol-2-yl-[1,2,4]triazolo[1,5-a]pyridine-7-carboxylic acid 4-methoxy-benzylamide]"
,,,196 nM,42.7 nM,4.6,Nc1cc(C(=O)NCc2ccccc2Br)cc2nc(-c3ccc(Br)o3)nn12 [Example 167]
,,,266 nM,197 nM,1.3,"COc1cc(CNC(=O)c2cc(N)n3nc(-c4cc(Br)co4)nc3c2)cc(OC)c1OC [Example 177, 5-Amino-2-(4-bromo-furan-2-yl)-[1,2,4]triazolo[1,5-a]pyridine-7-carboxylic acid 3,4,5-trimethoxy-benzylamide]"
,,,112 nM,129 nM,0.9,"COc1ccccc1CNC(=O)c1cc(N)n2nc(-c3sccc3C)nc2c1 [Example 192, 5-Amino-2-(3-methyl-thiophen-2-yl)-[1,2,4]triazolo[1,5-a]pyridine-7-carboxylic acid 2-methoxy-benzylamide]"
,,,422 nM,7.7 nM,54.9,"C[C@@H]1CN(C(=O)c2cc(N)n3nc(-c4ccc(Br)o4)nc3c2)C[C@H](C)O1 [Example 360, [5-Amino-2-(5-bromo-furan-2-yl)-[1,2,4]triazolo[1,5-a]pyridin-7-yl]-(cis-2,6-dimethyl-morpholin-4-yl)-methanone]"
,,,142 nM,3 nM,47.3,"CCCCN(CCC)C(=O)c1cc(N)n2nc(-c3ccc(Br)o3)nc2c1 [Example 342, 5-Amino-2-(5-bromo-furan-2-yl)-[1,2,4]triazolo[1,5-a]pyridine-7-carboxylic acid butyl-propyl-amide]"
,,,223 nM,227 nM,1.0,"COc1ccc(-c2nc3cc(C(=O)NC4CCCCC4)cc(N)n3n2)s1 [Example 64, 5-Amino-2-(5-methoxy-thiophen-2-yl)-[1,2,4]triazolo[1,5-a]pyridine-7-carboxylic acid cyclohexylamide]"
,,,203 nM,87.7 nM,2.3,"Nc1cc(C(=O)NCc2ccc(F)cc2)cc2nc(-c3ccccn3)nn12 [Example 43, 5-Amino-2-pyridin-2-yl-[1,2,4]triazolo[1,5-a]pyridine-7-carboxylic acid 4-fluoro-benzylamide]"
,,,304 nM,39.8 nM,7.6,"Nc1cc(C(=O)N2CC=C(c3ccccc3)CC2)cc2nc(-c3ccc(Cl)o3)nn12 [Example 263, [5-Amino-2-(5-chloro-furan-2-yl)-[1,2,4]triazolo[1,5-a]pyridin-7-yl]-(4-phenyl-3,6-dihydro-2H-pyridin-1-yl)-methanone]"
,,,247 nM,181 nM,1.4,"CCCCCCNC(=O)c1cc(N)n2nc(-c3ccc(OC)s3)nc2c1 [Example 63, 5-Amino-2-(5-methoxy-thiophen-2-yl)-[1,2,4]triazolo[1,5-a]pyridine-7-carboxylic acid hexylamide]"
,,,151 nM,329 nM,0.5,"COc1ccc(CNC(=O)c2cc(N)n3nc(-c4cc(Br)co4)nc3c2)cc1 [Example 176, 5-Amino-2-(4-bromo-furan-2-yl)-[1,2,4]triazolo[1,5-a]pyridine-7-carboxylic acid 4-methoxy-benzylamide]"
,,,123 nM,5.9 nM,20.8,"Cc1ccc(-c2nc3cc(C(=O)N(Cc4ccccc4)C(C)C)cc(N)n3n2)o1 [Example 141, 5-Amino-2-(5-methyl-furan-2-yl)-[1,2,4]triazolo[1,5-a]pyridine-7-carboxylic acid benzyl-isopropyl-amide]"
,,,360 nM,14.7 nM,24.5,"C=CCN(C)C(=O)c1cc(N)n2nc(-c3ccc(Cl)o3)nc2c1 [Example 251, 5-Amino-2-(5-chloro-furan-2-yl)-[1,2,4]triazolo[1,5-a]pyridine-7-carboxylic acid allyl-methyl-amide]"
,,,678 nM,310 nM,2.2,"COc1cc(CNC(=O)c2cc(N)n3nc(-c4ccc(C)s4)nc3c2)cc(OC)c1OC [Example 202, 5-Amino-2-(5-methyl-thiophen-2-yl)-[1,2,4]triazolo[1,5-a]pyridine-7-carboxylic acid 3,4,5-trimethoxy-benzylamide]"
